Values quoted from earlier work in patent US7276228B2, “Methods for treating hematological disorders through inhibition of DNA methylation and histone deacetylase” (SuperGen, Inc., priority 2001, dated 2007).
Blank lines part the entries; values can stand above or below the compound they belong to.

Assays:
HDAC = conditions: for concentration at which HDAC activity is inhibited: literature statements
mammalian HDAC = conditions: Yoshida et al. (1990)
DNA methyltransferase = conditions: decitabine replacing 5-methylcytosine at a site of methylation in DNA; Juttermann et al. (1994)

Compound: C/C=C1\NC(=O)[C@H]2CSSCC/C=C/[C@H](CC(=O)N[C@H](C(C)C)C(=O)N2)OC(=O)[C@H](C(C)C)NC1=O [FR901228]
concentration at which HDAC activity is inhibited (HDAC): micromolar concentrations

Compound: O=C(/C=C/c1cccc(C(=O)NO)c1)NO [CBHA, m-carboxy-cinnamic acid bishydroxamic acid]
concentration at which HDAC is inhibited (HDAC; in vitro or in vivo, Glick et al. (1999)): micromolar concentration or lower

Compound: CC(/C=C/C(=O)NO)=C\[C@@H](C)C(=O)c1ccc(N(C)C)cc1 [TSA, trichostatin A]
inhibition of mammalian HDAC (mammalian HDAC): potent inhibitor

Compound: depudecin
concentration at which HDAC activity is inhibited (HDAC): micromolar concentrations

inactivation of DNA methyltransferase (DNA methyltransferase): irreversible inactivation
Compound: Nc1ncn([C@H]2C[C@H](O)[C@@H](CO)O2)c(=O)n1 [decitabine, 5-aza-2′-deoxycytidine]
